Reference: patent US6794402B2, “Bicyclic cyclohexylamines and their use as NMDA receptor antagonists” (Warner-Lambert Company, priority 2000, dated 2004)
pIC50: −log10 of the molar value. Where a name gives a salt, the structure may show the parent alone.

Columns and labels:
[1] = target: T1, [3H]ifenprodil binding site, rat forebrain membranes (Rattus norvegicus, UniProt P35439+Q00960); assay: [3H]Ifenprodil binding assay; details: 4 nM [3H]-ifenprodil, 2 hours at room temperature
T1 construct: membrane fraction was prepared from frozen adult rat forebrains; tissue Zivic-Miller Laboratories, Inc; host or cells: adult rat forebrain, washed buffy coat membrane fraction
Procedure: All buffers and reagents used in assay incubations or to dissolve drugs were prepared using water purified through a Milli-Q reverse osmosis system (Millipore Corp, Bedford, Mass.) and treated with UV emissions. Prior to use in the assays, buffers were further filtered through a sterile Corning filtration unit (Corning Glass Works, Corning, N.Y.) containing a 0.2-micron filter. Buffer used to rinse the membranes on the assay filters was prepared with purified water, but was not refiltered and was stored no longer than 5 days. Stock solutions of the drugs (usually 10 mM) were dissolved in 20 mM HEPES-KOH buffer pH 7.4 (assay buffer) with the addition of 1 to 5 μL of glacial AcOH, if needed to keep them in solution. For eliprodil the stock solution was buffered with the addition of 10% DMSO. All subsequent dilutions from stock were made in buffer.
An extensively washed buffy coat membrane fraction was prepared from frozen adult rat forebrains (Zivic-Miller Laboratories, Inc., Zelienople, Pa.) as described previously (Coughenour L. L., Cordon, J. J., J. Pharmacol. Exp. Ther., 1997;280:584-592) and stored at −80° C. On the day of the assay, pellets were resuspended in 35 mL of assay buffer at pH 7.4 using a Polytron setting 6. After incubation at 37° C. for 30 minutes in a shaking water bath, the homogenate was centrifuged 40,000×g for 10 minutes at 4° C. The pellets were resuspended in fresh buffer and centrifuged 3 more times before final suspension for use in the assay.
[^3H]Ifenprodil Binding. Triplicate incubations were carried out in a volume of 0.5 mL in 1.3 mL polypropylene tubes (Marsh Biomedical Products Inc., Rochester, N.Y.) for 2 hours at room temperature. Incubations contained test agents, membranes (100-200 μg protein) and 4 nM[^3H]-ifenprodil in 20 mM HEPES-KOH buffer, pH 7.4 (assay buffer). Assays were started by addition of the membranes. Bound radioligand was separated by filtration under reduced pressure using a Tomtec Mach II, 96-well cell harvester (Tomtec Inc., Orange, Colo.). Filtration was through Whatman GF/B glass fiber filters (Whatman Ltd, Maidstone, England), which had been soaked for at least 15 minutes in 0.3% polyethylenimine and allowed to air dry. The filters were rinsed with 3 mL of ice cold assay buffer within 6 seconds. Air was allowed to pass through the filters for an additional 10 seconds to remove residual moisture. The filter mat was supported on a cold (−20° C.) teflon support, and filters from individual wells were separated and placed in Mini Poly-Q vials (Beckman Instruments Inc., Fullerton, Calif.) and filled with 4 mL of scintillation cocktail (Beckman Ready Protein^+). Radioactivity retained on the filter was determined by liquid scintillation spectrophotometry. Nonspecific binding was defined as the binding in the presence of 1 mM ifenprodil. Specific binding was 90%.
Data analysis. Binding curves were statistically analyzed for a best one or two site competition fit using GraphPad Prism software (GraphPad Software Inc., San Diego, Calif.). The normalized data was fit by nonweighted nonlinear regression to either [formula]
Control data was entered as 100%, and no parameters were constrained. Inhibition curves were compared by ANOVA with post test comparisons of the logIC50 using Dunnett's multiple comparisons post test or Student's nonpaired, two-tailed t-test (GraphPad InStat software).

T1 sequence (Q00960 27-1482, other chains not shown): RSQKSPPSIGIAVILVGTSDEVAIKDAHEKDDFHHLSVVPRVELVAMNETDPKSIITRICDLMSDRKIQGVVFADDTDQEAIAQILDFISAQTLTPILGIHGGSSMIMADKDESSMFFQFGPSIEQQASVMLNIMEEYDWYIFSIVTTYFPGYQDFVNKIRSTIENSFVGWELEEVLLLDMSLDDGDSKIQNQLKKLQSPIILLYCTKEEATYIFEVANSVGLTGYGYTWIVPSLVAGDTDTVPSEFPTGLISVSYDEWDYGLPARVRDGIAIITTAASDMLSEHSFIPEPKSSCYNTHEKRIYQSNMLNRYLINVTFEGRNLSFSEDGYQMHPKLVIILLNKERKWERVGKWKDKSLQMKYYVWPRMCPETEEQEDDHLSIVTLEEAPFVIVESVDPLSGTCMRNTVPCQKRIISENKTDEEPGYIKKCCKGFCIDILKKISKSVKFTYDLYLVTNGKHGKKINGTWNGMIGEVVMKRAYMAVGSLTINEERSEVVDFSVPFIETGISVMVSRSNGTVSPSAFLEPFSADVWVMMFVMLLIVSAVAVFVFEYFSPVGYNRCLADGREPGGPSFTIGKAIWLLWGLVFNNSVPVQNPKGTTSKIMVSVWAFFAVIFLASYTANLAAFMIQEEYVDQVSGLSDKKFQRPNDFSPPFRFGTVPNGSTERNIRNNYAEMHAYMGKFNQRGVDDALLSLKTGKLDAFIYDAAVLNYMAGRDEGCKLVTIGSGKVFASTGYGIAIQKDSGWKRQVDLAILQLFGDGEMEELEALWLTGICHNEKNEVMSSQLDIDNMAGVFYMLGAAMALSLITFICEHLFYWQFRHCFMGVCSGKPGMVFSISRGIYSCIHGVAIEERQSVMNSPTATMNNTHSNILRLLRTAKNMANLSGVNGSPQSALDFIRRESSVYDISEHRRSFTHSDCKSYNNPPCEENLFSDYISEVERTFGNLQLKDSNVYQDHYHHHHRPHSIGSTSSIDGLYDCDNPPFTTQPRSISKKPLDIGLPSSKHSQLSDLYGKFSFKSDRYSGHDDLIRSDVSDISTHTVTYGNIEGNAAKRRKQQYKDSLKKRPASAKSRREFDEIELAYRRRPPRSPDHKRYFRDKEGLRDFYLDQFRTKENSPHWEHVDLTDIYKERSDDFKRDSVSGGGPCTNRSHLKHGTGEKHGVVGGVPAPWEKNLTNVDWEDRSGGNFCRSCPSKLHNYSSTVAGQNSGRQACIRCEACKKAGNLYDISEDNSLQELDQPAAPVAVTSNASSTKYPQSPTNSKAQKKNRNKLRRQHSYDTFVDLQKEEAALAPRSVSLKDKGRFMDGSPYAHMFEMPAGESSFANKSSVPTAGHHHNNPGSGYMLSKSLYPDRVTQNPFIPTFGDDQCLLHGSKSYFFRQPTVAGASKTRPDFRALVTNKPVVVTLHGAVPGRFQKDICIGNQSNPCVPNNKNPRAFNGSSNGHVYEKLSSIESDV

SMILES	melting point [°C]	pIC50 [1]
CC(C)c1ccc(CCCN(C)[C@H]2CC[C@H](c3ccc4[nH]c(=O)oc4c3)CC2)cc1 (as salt: HCl) [Example 53, 6-(trans-4-{[3-(4-Isopropylphenyl)propyl]methylamino}cyclohexyl)-3H-benzoxazol-2-one]	179 to 181	–
C[C@H](N[C@H]1CC[C@H](c2ccc3[nH]c(=O)oc3c2)CC1)[C@H](O)c1ccccc1 (stereo in doubt) (as salt: HCl) [Example 12, 6-{trans-4-[(1S,2R)-2-Hydroxy-1-methyl-2-phenylethylamino]cyclohexyl}-3H-benzoxazol-2-one]	251 to 256	–
CCN(CCCc1ccc(F)cc1)[C@H]1CC[C@H](c2ccc3[nH]c(=O)oc3c2)CC1 (as salt: HCl) [Example 25, 6-(trans-4-{Ethyl-[3-(4-fluorophenyl)propyl]amino}cyclohexyl)-3H-benzoxazol-2-one]	228 to 231	–
CN(CCN(C)[C@H]1CC[C@H](c2ccc3[nH]c(=O)oc3c2)CC1)c1ccccc1 (as salt: HCl) [Example 60, 6-(trans-4-{Methyl-[2-(Methylphenylamino)ethyl]amino}cyclohexyl)-3H-benzoxazol-2-one]	240 to 243	–
CCN([C@H]1CC[C@H](c2ccc3[nH]c(=O)oc3c2)CC1)[C@H](C)CCc1ccccc1 (as salt: HCl) [Example 27, 6-(trans-4-{Ethyl-[(R)-1-methyl-3-phenylpropyl]amino}cyclohexyl)-3H-benzoxazol-2-one]	139 to 158	–
CCN(CCCc1ccc(C(F)(F)F)cc1)[C@H]1CC[C@H](c2ccc3[nH]c(=O)oc3c2)CC1 (as salt: HCl) [Example 26]	248 to 252	–
CN(CCSc1ccc(F)cc1)[C@H]1CC[C@H](c2ccc3[nH]c(=O)oc3c2)CC1 (as salt: HCl) [Example 20, 6-{trans-4-[2-(4-Fluorophenylsulfanylethyl)methylamino]cyclohexyl}-3H-benzoxazol-2-one]	213 to 217	–
CN(CCCc1ccc(Cl)cc1Cl)[C@H]1CC[C@H](c2ccc3[nH]c(=O)oc3c2)CC1 (as salt: HCl) [Example 54, 6-(trans-4-{[3-(2,4-Dichlorophenyl)propyl]methylamino}cyclohexyl)-3H-benzoxazol-2-one]	273 to 279	–
O=c1[nH]c2ccc([C@H]3CC[C@H](N(CCCc4ccc(F)cc4)Cc4ccoc4)CC3)cc2o1 (as salt: HCl) [Example 31, 6-(trans-4-{[3-(4-Fluorophenyl)propyl]furan-3-ylmethylamino}cyclohexyl)-3H-benzoxazol-2-one]	225 to 227	–
CN(CCCc1c(F)cc(F)cc1F)[C@H]1CC[C@H](c2ccc3[nH]c(=O)oc3c2)CC1 (as salt: HCl) [Example 57, 6-(trans-4-{[3-(2,4,6-Trifluorophenyl)propyl]methylamino}cyclohexyl)-3H-benzoxazol-2-one]	235 to 238	–
CC(C)Cc1ccc(CCCN(C)[C@H]2CC[C@H](c3ccc4[nH]c(=O)oc4c3)CC2)cc1 (as salt: HCl) [Example 56, 6-(trans-4-{[3-(4-Isobutylphenyl)propyl]methylamino}cyclohexyl)-3H-benzoxazol-2-one]	162 to 165	–
CN(CCCc1nccs1)[C@H]1CC[C@H](c2ccc3[nH]c(=O)oc3c2)CC1 (as salt: HCl) [Example 59, 6-{trans-4-[Methyl(3-thiazol-2-ylpropyl)amino]cyclohexyl}-3H-benzoxazol-2-one]	237 to 239	–
CCN([C@H]1CC[C@H](c2ccc3[nH]c(=O)oc3c2)CC1)[C@@H](C)CCc1ccccc1 (as salt: HCl) [Example 28, 6-(trans-4-{Ethyl-[(S)-1-methyl-3-phenylpropyl]amino}cyclohexyl)-3H-benzoxazol-2-one]	221 to 246	–
O=c1[nH]c2ccc([C@H]3CC[C@H](NCCCc4ccc(F)cc4)CC3)cc2[nH]1 (as salt: HCl) [Example 62, 5-{trans-4-[3-(4-Fluorophenyl)propylamino]cyclohexyl}-1,3-dihydrobenzoimidazol-2-one]	336 to 339	–
O=c1[nH]c2ccc([C@H]3CC[C@H](NCCCc4ccc(F)cc4)CC3)cc2[nH]1 [Example 62, 5-{trans-4-[3-(4-Fluorophenyl)propylamino]cyclohexyl}-1,3-dihydrobenzoimidazol-2-one]	–	7.77
CCN(CCCc1ccc(C(F)(F)F)cc1)[C@H]1CC[C@H](c2ccc3[nH]c(=O)oc3c2)CC1 [Example 26]	–	6.73
CCN([C@H]1CC[C@H](c2ccc3[nH]c(=O)oc3c2)CC1)[C@@H](C)CCc1ccccc1 [Example 28, 6-(trans-4-{Ethyl-[(S)-1-methyl-3-phenylpropyl]amino}cyclohexyl)-3H-benzoxazol-2-one]	–	6.74
NCCN(CCCc1ccc(F)cc1)[C@H]1CC[C@H](c2ccc3[nH]c(=O)oc3c2)CC1 [Example 35, 6-(trans-4-{(2-Aminoethyl)-[3-(4-fluorophenyl)propyl]amino}cyclohexyl)-3H-benzoxazol-2-one]	–	6.77
O=c1[nH]c2ccc([C@H]3CC[C@H](NCCCc4ccc(C(F)(F)F)cc4)CC3)cc2o1 [Example 14, 6-{trans-4-[3-(4-Trifluoromethylphenyl)propylamino]cyclohexyl}-3H-benzoxazol-2-one]	–	6.89
CN(CCCc1ccc(F)cc1)[C@H]1CC[C@H](c2ccc3[nH]c(=O)[nH]c3c2)CC1 [Example 63, 5-(trans-4-{[3-(4-Fluorophenyl)propyl]methylamino}cyclohexyl)-1,3-dihydrobenzoimidazol-2-one]	–	8.70

Results, then the molecule that gave them:

melting point [°C]	pIC50 [1]	SMILES
274 to 275	–	CN(CCCc1ccc(Cl)cc1F)[C@H]1CC[C@H](c2ccc3[nH]c(=O)oc3c2)CC1 (as salt: HCl) [Example 45b, 6-(trans-4-{[3-(4-Chloro-2-fluorophenyl)propyl]methylamino}cyclohexyl)-3H-benzoxazol-2-one]
224 to 227	–	CN(CCCc1ccc(F)c(F)c1)[C@H]1CC[C@H](c2ccc3[nH]c(=O)oc3c2)CC1 (as salt: HCl) [Example 40b, 6-(trans-4-{[3-(3,4-Difluorophenyl)propyl]methylamino}cyclohexyl)-3H-benzoxazol-2-one]
242 to 246	–	CN(CCCc1ccccc1F)[C@H]1CC[C@H](c2ccc3[nH]c(=O)oc3c2)CC1 (as salt: HCl) [Example 46b, 6-(trans-4-{[3-(2-Fluorophenyl)propyl]methylamino}cyclohexyl)-3H-benzoxazol-2-one]
–	7.25	Cc1cc(F)ccc1CCCN(C)C1CCC(c2ccc3[nH]c(=O)oc3c2)CC1 (stereo in doubt) [Example 43b, 6-(trans-{4-[Methyl(4-fluoro-2-methylphenylpropyl)amino]cyclohexyl})-3H-benzoxazol-2-one]
–	7.54	CN(CCCc1ccc(F)c(F)c1)[C@H]1CC[C@H](c2ccc3[nH]c(=O)oc3c2)CC1 [Example 40b, 6-(trans-4-{[3-(3,4-Difluorophenyl)propyl]methylamino}cyclohexyl)-3H-benzoxazol-2-one]
–	7.70	Cc1c(F)cccc1CCCN(C)[C@H]1CC[C@H](c2ccc3[nH]c(=O)oc3c2)CC1 [Example 48b, 6-(trans-4-{[3-(3-Fluoro-2-methylphenyl)propyl]methylamino}cyclohexyl)-3H-benzoxazol-2-one]
–	8.15	CN(CCCc1ccc(Cl)cc1)[C@H]1CC[C@H](c2ccc3[nH]c(=O)oc3c2)CC1 [Example 38b, 6-(trans-4-{[3-(4-Chlorophenyl)propyl]methylamino}cyclohexyl)-3H-benzoxazol-2-one]
–	7.43	CN(CCCc1cc(F)cc(F)c1)[C@H]1CC[C@H](c2ccc3[nH]c(=O)oc3c2)CC1 [Example 39b, 6-(trans-{[3-(3,5-Difluorophenyl)propyl]methylamino}cyclohexyl)-3H-benzoxazol-2-one]
